Experimental data reported in patent US20260285850A1, “SUBSTITUTED OXAZOLIDINONES AND IMIDAZOLINONES AS HERBICIDES” (FMC CORPORATION, priority 2023, published 2026).

Assays:
Type in all cases: in vivo
[1] = system: barnyardgrass (Echinochloa crusgalli); experiment: Test B flooded paddy test, visual plant response rating 0-100; settings: 250 g ai/ha, Flood, applied to paddy water, evaluated after 13 days
In short: (§1)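 Visual scores versus untreated controls were recorded 13 days after treatment of greenhouse-held plants. At the 2-leaf stage, pots were flooded 3 cm above the soil surface and compounds added straight to the water.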

[2] = system: sedge, umbrella (small-flower umbrella sedge, Cyperus difformis); experiment: as above; settings: 250 g ai/ha, Flood, applied to paddy water, evaluated after 13 days
In short: as §1

rice (Oryza sativa) = experiment: as above; settings: 250 g ai/ha, Flood, applied to paddy water, evaluated after 13 days
In short: as §1

[3] = system: ducksalad (Heteranthera limosa); experiment: as above; settings: 250 g ai/ha, Flood, applied to paddy water, evaluated after 13 days
In short: as §1

[4] = system: wheat (Triticum aestivum); experiment: Test A preemergence soil spray, visual injury rating 0-100; settings: 10 days
In short: (§2)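 Plants were grown in a loam soil-sand blend and treated with test chemical in a non-phytotoxic solvent mixture containing surfactant, either sprayed on soil preemergence or applied postemergence to 2-10 cm plants. After 10 days in a greenhouse, injury was scored visually against untreated controls, 0 meaning no effect and 100 complete control.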

soybean (Glycine max) [5] = experiment: as above; settings: 10 days
In short: as §2

[6] = system: blackgrass (Alopecurus myosuroides); experiment: as above; settings: 10 days
In short: as §2

[7] = system: oat, wild (wild oat, Avena fatua); experiment: as above; settings: 10 days
In short: as §2

[8] = system: green foxtail (Setaria viridis); experiment: as above; settings: 10 days
In short: as §2

[9] = system: barnyardgrass (Echinochloa crus-galli); experiment: as above; settings: 10 days
In short: as §2

[10] = system: ragweed (common ragweed, Ambrosia artemisiifolia); experiment: as above; settings: 10 days
In short: as §2

[11] = system: ryegrass, Italian (italian ryegrass, Lolium multiflorum); experiment: as above; settings: 10 days
In short: as §2

kochia (Bassia scoparia) [12] = experiment: as above; settings: 10 days
In short: as §2

corn (Zea mays) [13] = experiment: as above; settings: 10 days
In short: as §2

[14] = system: galium (catchweed bedstraw, Galium aparine); experiment: Test A postemergence application, visual injury rating 0-100
In short: as §2

[15] = system: wheat (Triticum aestivum); experiment: as above
In short: as §2

soybean (Glycine max) [16] = experiment: as above
In short: as §2

[17] = system: blackgrass (Alopecurus myosuroides); experiment: as above
In short: as §2

[18] = system: horseweed (Erigeron canadensis); experiment: as above
In short: as §2

[19] = system: oat, wild (wild oat, Avena fatua); experiment: as above
In short: as §2

[20] = system: green foxtail (Setaria viridis); experiment: as above
In short: as §2

[21] = system: barnyardgrass (Echinochloa crus-galli); experiment: as above
In short: as §2

[22] = system: ragweed (common ragweed, Ambrosia artemisiifolia); experiment: as above
In short: as §2

[23] = system: palmer (palmer amaranth, palmer pigweed, Amaranthus palmeri); experiment: as above
In short: as §2

[24] = system: ryegrass, Italian (italian ryegrass, Lolium multiflorum); experiment: as above
In short: as §2

kochia (Bassia scoparia) [25] = experiment: as above
In short: as §2

corn (Zea mays) [26] = experiment: as above
In short: as §2

[27] = 62 g ai/ha, 0 = no effect, 100 = complete control
[28] = 62 g ai/ha, postemergence, 10 days, 0 = no effect, 100 = complete control
[29] = Postemergence, 16 g ai/ha, greenhouse 10 days, 0 no effect, 100 complete control

With CSCCOC(=O)C1=CCC(NC(=O)C2(C)CN(c3cc(F)cc(Cl)c3)C(=O)O2)C1 (centres unmarked) [Compound 135] the “Plant response rating, Barnyardgrass (0 to 100 scale, 0 is no effect and 100 is complete control)” value [1] was 90, the “Plant response rating, Sedge, Umbrella (0 to 100 scale, 0 is no effect and 100 is complete control)” value [2] was 95 and the “Plant response rating, Rice (0 to 100 scale, 0 is no effect and 100 is complete control)” value (rice (Oryza sativa)) was 65. The “Plant response rating, Ducksalad (0 to 100 scale, 0 is no effect and 100 is complete control)” value [3] was 65, the “Wheat plant response rating” value ([4]; 16 g ai/ha, 0 to 100 scale) was 10 and the “Wheat plant response rating (0-100)” value [4, 27] was 90. For the same molecule, the “Soybean plant response rating” value (soybean (Glycine max) [5]; 16 g ai/ha, 0 to 100 scale) was 20, the “Soybean plant response rating (0-100)” value (soybean (Glycine max) [5]; [27]) was 20 and the “Blackgrass plant response rating” value ([6]; 16 g ai/ha, 0 to 100 scale) was 0. The “Blackgrass plant response rating (0-100)” value [6, 27] was 20, the “Oat, Wild plant response rating” value ([7]; 16 g ai/ha, 0 to 100 scale) was 20 and the “Oat, Wild plant response rating (0-100)” value [7, 27] was 30. The “Foxtail, Green plant response rating” value ([8]; 16 g ai/ha, 0 to 100 scale) was 0, the “Foxtail, Green plant response rating (0-100)” value [8, 27] was 80 and the “Barnyardgrass plant response rating” value ([9]; 16 g ai/ha, 0 to 100 scale) was 20. The “Barnyardgrass plant response rating (0-100)” value [9, 27] was 50, the “Ragweed plant response rating” value ([10]; 16 g ai/ha, 0 to 100 scale) was 0 and the “Ragweed plant response rating (0-100)” value [10, 27] was 0. The “Ryegrass, Italian plant response rating” value ([11]; 16 g ai/ha, 0 to 100 scale) was 0, the “Ryegrass, Italian plant response rating (0-100)” value [11, 27] was 90 and the “Kochia plant response rating” value (kochia (Bassia scoparia) [12]; 16 g ai/ha, 0 to 100 scale) was 0. For the same molecule, the “Kochia plant response rating (0-100)” value (kochia (Bassia scoparia) [12]; [27]) was 20, the “Corn plant response rating” value (corn (Zea mays) [13]; 16 g ai/ha, 0 to 100 scale) was 0 and the “Corn plant response rating (0-100)” value (corn (Zea mays) [13]; [27]) was 70. The “Galium plant response rating (0-100)” value [14, 28] was 80, the “Galium plant response rating (0 to 100 scale)” value [14, 29] was 70 and the “Wheat plant response rating (0-100)” value [15, 28] was 90. For the same molecule, the “Wheat plant response rating (0 to 100 scale)” value [15, 29] was 80, the “Soybean plant response rating (0-100)” value (soybean (Glycine max) [16]; [28]) was 80 and the “Soybean plant response rating (0 to 100 scale)” value (soybean (Glycine max) [16]; [29]) was 60. For the same molecule, the “Blackgrass plant response rating (0-100)” value [17, 28] was 100, the “Blackgrass plant response rating (0 to 100 scale)” value [17, 29] was 90 and the “Horseweed plant response rating (0-100)” value [18, 28] was 90. The “Horseweed plant response rating (0 to 100 scale)” value [18, 29] was 70, the “Oat, Wild plant response rating (0-100)” value [19, 28] was 90 and the “Oat, Wild plant response rating (0 to 100 scale)” value [19, 29] was 30. For the same molecule, the “Foxtail, Green plant response rating (0-100)” value [20, 28] was 90, the “Foxtail, Green plant response rating (0 to 100 scale)” value [20, 29] was 90 and the “Barnyardgrass plant response rating (0-100)” value [21, 28] was 100. For the same molecule, the “Barnyardgrass plant response rating (0 to 100 scale)” value [21, 29] was 100, the “Ragweed plant response rating (0-100)” value [22, 28] was 70 and the “Ragweed plant response rating (0 to 100 scale)” value [22, 29] was 40. The “Pigweed, Palmer plant response rating (0-100)” value [23, 28] was 90, the “Pigweed, Palmer plant response rating (0 to 100 scale)” value [23, 29] was 70 and the “Ryegrass, Italian plant response rating (0-100)” value [24, 28] was 90. For the same molecule, the “Ryegrass, Italian plant response rating (0 to 100 scale)” value [24, 29] was 40, the “Kochia plant response rating (0-100)” value (kochia (Bassia scoparia) [25]; [28]) was 90 and the “Kochia plant response rating (0 to 100 scale)” value (kochia (Bassia scoparia) [25]; [29]) was 90. The “Corn plant response rating (0-100)” value (corn (Zea mays) [26]; [28]) was 100 and the “Corn plant response rating (0 to 100 scale)” value (corn (Zea mays) [26]; [29]) was 100.
